Laboratory results as given in patent US20070043024A1, “Azacyclic compounds as inhibitors of sensory neurone specific channels” (priority 2003, published 2007).

These compounds were tested against T1, human Nav1.8 (hNav1.8) ion channel (Homo sapiens, UniProt Q9Y5Y9) (assay: Inhibition of human Nav1.8 stably expressed in SH-SY-5Y cells (membrane potential dye fluorescence assay)). Details: IC50, Table 1; SH-SY-5Y hNav1.8 cells, inhibition of membrane depolarisation, FLIPR membrane potential dye, 250 nM TTX, test concentration range 100 μM-0.05 μM.
T1 construct: expressed in transfected cells
T1 sequence (Q9Y5Y9 whole entry): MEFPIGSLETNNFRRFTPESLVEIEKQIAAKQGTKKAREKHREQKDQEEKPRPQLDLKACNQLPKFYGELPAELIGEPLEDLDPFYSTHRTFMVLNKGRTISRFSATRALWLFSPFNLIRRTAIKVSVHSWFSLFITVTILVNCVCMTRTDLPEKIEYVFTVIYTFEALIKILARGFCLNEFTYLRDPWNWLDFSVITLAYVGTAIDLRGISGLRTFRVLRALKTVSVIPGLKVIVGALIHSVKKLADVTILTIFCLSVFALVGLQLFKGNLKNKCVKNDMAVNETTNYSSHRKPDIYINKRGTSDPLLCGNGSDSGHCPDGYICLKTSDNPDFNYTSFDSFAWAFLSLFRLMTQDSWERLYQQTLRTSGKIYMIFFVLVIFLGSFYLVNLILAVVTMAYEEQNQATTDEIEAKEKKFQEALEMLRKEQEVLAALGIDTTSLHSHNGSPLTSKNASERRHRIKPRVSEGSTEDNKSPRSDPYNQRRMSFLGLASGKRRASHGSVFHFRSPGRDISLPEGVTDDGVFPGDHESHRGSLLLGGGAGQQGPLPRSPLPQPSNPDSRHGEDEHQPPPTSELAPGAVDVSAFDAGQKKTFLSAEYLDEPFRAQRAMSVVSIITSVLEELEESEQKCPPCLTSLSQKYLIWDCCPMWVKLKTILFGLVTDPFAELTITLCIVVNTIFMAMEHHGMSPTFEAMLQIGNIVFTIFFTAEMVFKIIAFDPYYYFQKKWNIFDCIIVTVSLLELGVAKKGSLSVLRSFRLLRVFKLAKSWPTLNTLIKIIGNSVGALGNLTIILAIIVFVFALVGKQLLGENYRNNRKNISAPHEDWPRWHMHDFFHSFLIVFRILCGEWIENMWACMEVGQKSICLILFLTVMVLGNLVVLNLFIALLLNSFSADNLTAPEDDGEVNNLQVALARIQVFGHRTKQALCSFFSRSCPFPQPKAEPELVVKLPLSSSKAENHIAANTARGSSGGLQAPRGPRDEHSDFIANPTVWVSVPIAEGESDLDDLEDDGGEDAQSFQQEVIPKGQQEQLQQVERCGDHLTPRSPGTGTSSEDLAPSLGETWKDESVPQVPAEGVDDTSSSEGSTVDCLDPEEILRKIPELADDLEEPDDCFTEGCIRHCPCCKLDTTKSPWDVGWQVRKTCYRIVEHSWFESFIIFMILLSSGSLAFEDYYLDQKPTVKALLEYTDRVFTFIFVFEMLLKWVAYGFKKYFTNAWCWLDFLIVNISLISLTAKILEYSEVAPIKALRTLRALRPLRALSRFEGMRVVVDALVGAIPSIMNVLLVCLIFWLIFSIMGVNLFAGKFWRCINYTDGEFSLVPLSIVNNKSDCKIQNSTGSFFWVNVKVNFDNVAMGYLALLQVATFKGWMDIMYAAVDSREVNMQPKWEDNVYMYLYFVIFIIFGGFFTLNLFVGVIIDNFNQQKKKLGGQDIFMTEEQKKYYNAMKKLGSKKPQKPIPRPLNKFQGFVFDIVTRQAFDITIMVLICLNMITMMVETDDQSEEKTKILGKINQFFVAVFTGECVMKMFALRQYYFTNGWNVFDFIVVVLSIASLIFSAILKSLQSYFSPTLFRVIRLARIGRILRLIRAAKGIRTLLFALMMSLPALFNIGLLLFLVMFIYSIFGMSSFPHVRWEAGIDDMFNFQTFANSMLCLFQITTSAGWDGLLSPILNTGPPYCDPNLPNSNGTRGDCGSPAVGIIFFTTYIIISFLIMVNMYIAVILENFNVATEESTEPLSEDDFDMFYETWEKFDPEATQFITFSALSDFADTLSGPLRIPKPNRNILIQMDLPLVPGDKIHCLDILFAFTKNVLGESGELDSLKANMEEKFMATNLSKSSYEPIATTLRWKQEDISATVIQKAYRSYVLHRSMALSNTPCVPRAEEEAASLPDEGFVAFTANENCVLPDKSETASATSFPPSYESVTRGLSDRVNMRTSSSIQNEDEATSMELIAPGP
Type: cell-based
Work on O=C(CN1CCc2cccc(O)c2C1)N(Cc1ccccc1)c1ccccc1 [Example 25, N-Benzyl-2-(8-hydroxy-3,4-dihydro-1H-isoquinolin-2-yl)-N-phenyl-acetamide] yielded an IC50 of 1070 nM.
O=C(CN1CCc2cccc(O)c2C1)NCCC(c1ccccc1)c1ccccc1 [Example 27, N-(3,3-Diphenyl-propyl)-2-(8-hydroxy-3,4-dihydro-1H-isoquinolin-2-yl)-acetamide] showed an IC50 of 1020 nM.
Compound Cc1cnc(C(C)NC(=O)CN2CCc3cccc(O)c3C2)s1 (stereo not shown) [Example 29, 2-(8-Hydroxy-3,4-dihydro-1H-isoquinolin-2-yl)-N-[1-(5-methyl-thiazol-2-yl)-ethyl]-acetamide] has an IC50 of 15000 nM.

Same assay, conditions: Table 1; SH-SY-5Y hNav1.8 cells, inhibition of membrane depolarisation, FLIPR membrane potential dye, 250 nM TTX, test concentration range 100 μM-0.05 μM; read-out: IC50
O=C(CN1CCc2ccccc2C1)N(Cc1ccccc1)Cc1ccccc1 [Example 16, N,N-Dibenzyl-2-(3,4-dihydro-1H-isoquinolin-2yl)-acetamide] was tested, and the IC50 was 880 nM.
O=C(CN1CCc2ccccc2C1)N(Cc1ccccc1)c1ccccc1 [Example 17, N-Benzyl-2-(3,4-dihydro-1H-isoquinolin-2-yl)-N-phenyl-acetamide] gave an IC50 of 1250 nM.
In the case of O=C(CN1CCc2ccccc2C1)NCCC(c1ccccc1)c1ccccc1 [Example 18, 2-(3,4-Dihydro-1H-isoquinolin-2yl)-N-(3,3-diphenyl-propyl)-acetamide], the IC50 is reported as 680 nM.
COc1cccc2c1CN(CC(=O)NC(c1ccccc1)c1ccccc1)CC2 [Example 19, N-Benzhydryl-2-(8-methoxy-3,4-dihydro-1H-isoquinolin-2-yl)-acetamide] gave an IC50 of 730 nM.
Work on COc1cccc2c1CN(CC(=O)NCCC(c1ccccc1)c1ccccc1)CC2 [Example 22, N-(3,3-Diphenyl-propyl)-2-(8-methoxy-3,4-dihydro-1H-isoquinolin-2-yl)-acetamide] yielded an IC50 of 810 nM.
In the case of O=C(CN1CCc2cccc(O)c2C1)N(Cc1ccccc1)Cc1ccccc1 [Example 23, N,N-Dibenzyl-2-(8-hydroxy-3,3-dihydro-1H-isoquinolin-2-yl)-acetamide], the IC50 is reported as 260 nM.
Work on O=C(CN1CCc2cccc(O)c2C1)NC(c1ccccc1)c1ccccc1 [Example 24, N-Benzhydryl-2-(8-hydroxy-3,4-dihydro-1H-isoquinolin-2-yl)-acetamide] yielded an IC50 of 1510 nM.
O=C(CN1CCc2cccc(O)c2C1)NC1c2ccccc2-c2ccccc21 [Example 26, N-(9H-fluoren-9-yl)-2-(8-hydroxy-3,4-dihydro-1H-isoquinolin-2-yl)acetamide] gave an IC50 of 670 nM.
Compound O=C(CC(c1ccc(F)cc1)c1ccc(F)cc1)N1CCc2ccccc2C1 [Example 30] has an IC50 of 1590 nM.
For O=C(CNC(c1ccccc1)c1ccccc1)N1CCc2ccccc2C1 [Example 31, 2-(Benzhydryl-amino)-1-(3,4-dihydro-1H-isoquinolin-2-yl)-ethanone], the IC50 was 1850 nM.
Compound O=C(CNCC(c1ccccc1)c1ccccc1)N1CCc2ccccc2C1 [Example 32, 1-(3,4-Dihydro-1-isoquinolin-2-yl)-2-(2,2-diphenyl-ethylamino)-ethanone] has an IC50 of 230 nM.
Work on O=C(CN(CCC(c1ccccc1)c1ccccc1)CC(=O)N1CCc2ccccc2C1)N1CCc2ccccc2C1 [Example 33, 1-(3,4-Dihydro-1H-isoquinolin-2-yl)-2-[[2-(3,4-dihydro-1H-isoquinolin-2-yl)-2-oxo-ethyl]-(3,3-diphenyl-propyl)-amino]-ethanone] yielded an IC50 of 860 nM.
O=C(CNCCC(c1ccccc1)c1ccccc1)N1CCc2ccccc2C1 [Example 34, 1-(3,4-Dihydro-1H-isoquinolin-2-yl)-2-(3,3-diphenyl-propylamino)-ethanone] gave an IC50 of 190 nM.
Compound O=C(CN(Cc1ccccc1)Cc1ccccc1)N1CCc2ccccc2C1 [Example 35, 2-Dibenzylamino-1-(3,4-dihydro-1H-isoquinolin-2-yl)-ethanone] has an IC50 of 4860 nM.
Work on COc1cccc2c1CN(C(=O)CN(CC(=O)N1CCc3cccc(OC)c3C1)CC(c1ccccc1)c1ccccc1)CC2 [Example 36] yielded an IC50 of 2800 nM.
For COc1cccc2c1CN(C(=O)CNC(c1ccccc1)c1ccccc1)CC2 [Example 38, 2-(Benzhydryl-amino)-1-(8-methoxy-3,4-dihydro-1H-isoquinoline-2-yl)-ethanone], the IC50 was 1390 nM.
COc1cccc2c1CN(C(=O)CNCC(c1ccccc1)c1ccccc1)CC2 [Example 39, 2-(2,2-Diphenyl-ethylamino)-1-(8-methoxy-3,4-dihydro-1H-isoquinolin-2-yl)-ethanone] was tested, and the IC50 was 450 nM.
Work on O=C(CN1Cc2ccccc2C1)NCCC(c1ccccc1)c1ccccc1 [Example 40, 2-(1,3-Dihydro-isoindol-2-yl)-N-(3,3-diphenyl-propyl)-acetamide] yielded an IC50 of 970 nM.
With O=C(CN1Cc2ccccc2C1)NC(c1ccccc1)c1ccccc1 [Example 41, N-Benzhydryl-2-(1,3-dihydro-isoindol-2-yl)-acetamide] the IC50 was 7020 nM.
Work on O=C(CON=C(c1ccccc1)c1ccccc1)N1CCc2ccccc2C1 [Example 42, 2-Benzhydrylideneaminooxy-1-(3,4-dihydro-1H-isoquinoline-2-yl)-ethanone] yielded an IC50 of 1050 nM.
COc1cccc2c1CN(C(=O)CON=C(c1ccccc1)c1ccccc1)CC2 [Example 43, 2-Benzhydrylideneaminooxy-1-(8-methoxy-3,4-dihydro-1H-isoquinoline-2-yl)-ethanone] was tested, and the IC50 was 1670 nM.
Compound Oc1cccc2c1CN(Cc1n[nH]nc1-c1ccccc1)CC2 [Example 45, 2-(5-Phenyl-2H-[1,2,3]triazol-4-ylmethyl)-1,2,3,4-tetrahydro-isoquinolin-8-ol] has an IC50 of 7210 nM.
Work on c1ccc(C(CCNCCN2CCc3ccccc3C2)c2ccccc2)cc1 [Example 46, [2-(3,4-Dihydro-1H-isoquinolin-2-yl)-ethyl]-(3,3-diphenyl-propyl)-amine] yielded an IC50 of 290 nM.
With c1ccc(CN(CCN2CCc3ccccc3C2)Cc2ccccc2)cc1 [Example 47, Dibenzyl-[2-(3,4-dihydro-1H-isoquinolin-2-yl)-ethyl]-amine] the IC50 was 470 nM.
For CC(CN1CCc2cccc(O)c2C1)OCc1ccccc1 (stereo not shown) [Example 48, 2-(2-Benzyloxy-propyl)-1,2,3,4-tetrahydro-isoquinolin-8-ol], the IC50 was 4840 nM.
Work on S=C(NC(c1ccccc1)c1ccccc1)N1CCc2ccccc2C1 [Example 50, 3,4-Dihydro-1H-isoquinoline-2-carbothioic acid benzhydryl-amide] yielded an IC50 of 2740 nM.
Compound COc1cccc2c1CN(C(=S)NCC(c1ccccc1)c1ccccc1)CC2 [Example 52, 8-Methoxy-3,4-dihydro-1H-isoquinolin-2-carbothioic acid (2,2-diphenyl-ethyl)-amide] has an IC50 of 4680 nM.
O=C(CN1CCc2ccccc2C1)NCC(c1ccccc1)c1ccccc1 [Example 60, 2-(3,4-Dihydro-1H-isoquinolin-2-yl)-N-(2,2-diphenyl-ethyl)-acetamide] was tested, and the IC50 was 950 nM.
With COc1cccc2c1CN(CC(=O)NCC(c1ccccc1)c1ccccc1)CC2 [Example 61, N-(2,2-Diphenyl-ethyl)-2-(8-methoxy-3,4-dihydro-1H-isoquinolin-2-yl)-acetamide] the IC50 was 2560 nM.
COc1cccc2c1CN(CC(=O)N1CCN(C(c3ccccc3)c3ccccc3)CC1)CC2 [Example 62, 1-(4-benzhydryl-piperazin-1-yl)-2-(8-methoxy-3,4-dihydro-1H-isoquinolin-2-yl)-ethanone] gave an IC50 of 5630 nM.
In the case of COc1cccc2c1CN(CC(=O)N1CCN(C(c3ccc(F)cc3)c3ccc(F)cc3)CC1)CC2 [Example 63, 1-{4-[Bis-(4-fluoro-phenyl)-methyl]-piperazin-1-yl}-2-(8-methoxy-3,4-dihydro-1H-isoquinolin-2-yl)-ethanone], the IC50 is reported as 15800 nM.
O=C(CN1CCc2ccccc2C1)N1CCN(C(c2ccccc2)c2ccccc2)CC1 [Example 64, 1-(4-Benzhydryl-piperazin-1-yl)-2-(3,4-dihydro-1H-isoquinolin-2-yl)-ethanone] gave an IC50 of 3140 nM.
For O=C(CN1CCc2ccccc2C1)N1CCN(C(c2ccc(F)cc2)c2ccc(F)cc2)CC1 [Example 65, 1-{4-[Bis-(4-fluoro-phenyl)-methyl]-piperazin-1-yl}-2-(3,4-dihydro-1H-isoquinolin-2-yl)-ethanone], the IC50 was 5640 nM.
O=C(CN1Cc2ccccc2C1)NCC(c1ccccc1)c1ccccc1 [Example 66] gave an IC50 of 2050 nM.
O=C(CN1Cc2ccccc2C1)N1CCN(C(c2ccccc2)c2ccccc2)CC1 [Example 67, 1-(4-Benzhydryl-piperazin-1-yl)-2-(1,3-dihydro-isoindol-2-yl)-ethanone] showed an IC50 of 2350 nM.
Work on O=C(CN1Cc2ccccc2C1)N1CCN(C(c2ccc(F)cc2)c2ccc(F)cc2)CC1 [Example 68, 1-{4-[Bis-(4-fluoro-phenyl)-methyl]-piperazin-1-yl}-2-(1,3-dihydro-isoindol-2-yl)-ethanone] yielded an IC50 of 1950 nM.
In the case of COc1cccc2c1CN(CC(=O)NC(c1ccccc1)c1ccccn1)CC2 (stereo not shown) [Example 69, 2-(8-methoxy-3,4-dihydro-1H-isoquinolin-2-yl)-N-(phenyl-pyridin-2-yl-methyl)-acetamide], the IC50 is reported as 8960 nM.
With O=C(CN1CCc2cccc(O)c2C1)N1c2ccccc2OCC1c1ccccc1 (stereo not shown) [Example 70, 2-(8-Hydroxy-3,4-dihydro-1H-isoquinolin-2-yl)-1-(3-phenyl-2,3-dihydro-benzo[1,4]oxazin-4-yl)-ethanone] the IC50 was 2140 nM.
With COc1cccc2c1CN(C(C)C(=O)NCCC(c1ccccc1)c1ccccc1)CC2 (stereo not shown) [Example 77, N-(3,3-Diphenyl-propyl)-2-(8-methoxy-3,4-dihydro-1H-isoquinolin-2-yl)-propionamide] the IC50 was 660 nM.
With COc1ccc2c(c1)CN(CC(=O)NCCC(c1ccccc1)c1ccccc1)CC2 [Example 86, N-(3,3-Diphenyl-propyl)-2-(7-methoxy-3,4-dihydro-1H-isoquinolin-2-yl)-acetamide] the IC50 was 1460 nM.
With COc1ccc2c(c1)CN(CC(=O)N(Cc1ccccc1)Cc1ccccc1)CC2 [Example 87, N,N-Dibenzyl-2-(7-methoxy-3,4-dihydro-1H-isoquinolin-2-yl)-acetamide] the IC50 was 1100 nM.

Same assay, conditions: Table 2 (compound numbers of the list in the description); SH-SY-5Y hNav1.8 cells, inhibition of membrane depolarisation, FLIPR membrane potential dye, 250 nM TTX, test concentration range 100 μM-0.05 μM; read-out: IC50
Work on O=C(CN1Cc2ccccc2C1)NCCC(c1ccccc1)c1ccccc1 [Example 40, 2-(1,3-Dihydro-isoindol-2-yl)-N-(3,3-diphenyl-propyl)-acetamide] yielded an IC50 of 530 nM.
For O=C(CN1Cc2ccccc2C1)NCC(c1ccccc1)c1ccccc1 [Example 66], the IC50 was 2050 nM.
